Results reported in US8211883B2, “Topical delivery of phthalocyanines” (priority 2004, dated 2012).

Experiments:
[1] = tested on: Chinese hamster V79-379 lung fibroblasts; experiment: Uptake of phthalocyanines into V79 cells; details: for Uptake Into V79 Cells, 1 μM / Uptake Into V79 Cells, 4 μM: 18 hours; for n Moles/10^6 Cells/μM (composite uptake value): V79 cells, average of all data, asterisk: listed value is for 1 μM, average would be higher
Description: Chinese hamster V79-379 lung fibroblasts were grown in monolayer culture in McCoy's 5A medium (Gibco Laboratories, Grand Island, N.Y.) augmented with 10% calf serum and buffered with 20 mM HEPES (pH 7.4).
Total uptake was determined by scraping the phthalocyanine-treated monolayer, collecting the cells on a glass-fiber filter, and extracting the phthalocyanine in ethanol, as previously described by Ramakrishnan, et al., 1989. (Ramakrishnan, N., M. E. Clay, M. F. Horng, A. R. Antunez, & H. H. Evans, “DNA Lesions and DNA Degradation in Mouse Lymphoma L5178Y Cells After Photodynamic Treatment Sensitized by Chloroaluminum Phthalocyanine”, Photochem. Photobiol, in press, 1989). The amount of drug was determined by absorption at 674 nm and expressed relative to the number of cells, as measured in a Coulter cell counter on an aliquot of the cell population. Controls included cells not treated with drug, medium alone, and drug-containing medium without cells.
The cells were treated with 1 μM AlPcCl (from Eastman Kodak, Rochester, N.Y.) or with phthalocyanine compositions I-VI (0.5-1.0 μM final concentration in the medium) for 18 hours by adding the appropriate volume of a 1.0 mM stock solution in dimethylformamide (DMF) to the culture medium. The growth medium was replaced with 4 mL Hank's balanced salt solution (HBSS), and the cells were irradiated. The light source was a 500 W tungsten-halogen lamp located approximately 29 inches below the surface of a glass exposure tray. The visible light administered to the cells was filtered to allow passage of only that portion of the visible spectrum above 600 nm (Lee Primary red filter No. 106, Vincent Lighting, Cleveland, Ohio). The fluence rate was approximately 0.074 kJ/m^2/s at the level of the cell monolayer.
V79 cells Chinese hamster lung fibroblasts were cultured using the cell culture methods described above. The phthalocyanines listed in table 2 were added to the cultures typically at concentrations of 1 μM, 2 μM, and/or 4 μM and incubated for 18 hours, after which aliquots of the cells were counted and other aliquots were collected on a glass fiber filter. When the filters were dry, the phthalocyanines were extracted into ethanol and the absorption determined at the peak wavelength, usually 668 nm. Values were converted to nmoles taken up by 10^6 cells, using an extinction coefficient of 2.93×10^5.

L5178Y cells = experiment: Induction of apoptosis (DNA ladder) in L5178Y cells after PDT; format: cell-based, Mouse; details: for Fluence, Minimum Demonstrated Condition to Induce Apoptosis / C × F Ld90, Minimum Demonstrated Condition to Induce Apoptosis: 0.5 μM; for C × F Ld90, Minimum Demonstrated Condition to Induce Apoptosis: product of concentration and fluence; for induction of apoptosis: 1 μM at a fluence of 30 kJ/m^2
Description: The cells were used while in exponential growth. Stock solutions of either 0.5 or 1 mM of PcIV, PcXII, PcX, PcXVIII were prepared in dimethylformamide unless otherwise indicated and added to the 10 mL medium at a rate of 1 μL per mL. After allowing 18 hours for uptake of the phthalocyanine into the cells, the flasks containing the cultures were placed on a glass exposure tray above a 500-W tungsten-halogen lamp. The exposure tray was fitted with a 600-nm high-pass filter. Flasks were exposed to various fluences of red light (up to 30 kJ/m^2) at a fluence rate of approximately 74 W/m^2). After irradiation, the cells were collected by centrifugation.
The aliquots were plated in sufficient numbers to produce 50-200 colonies. The dishes were kept in an incubator at 37° C. in an atmosphere of 5% CO2 and 95% air for 10-14 days to allow viable cells to form colonies. Colonies were counted by eye. […] The plating efficiencies of the treated cells are normalized to the plating efficiencies of control cells in each experiment.
Cells were treated with various concentrations of the compounds listed in the table and various light fluences. DNA gels were prepared and examined for the characteristic “ladder” pattern of DNA fragments. For each Pc, the minimum total PDT dose tested (calculated as the product of the minimum phthalocyanine concentration and the minimum fluence) which produced visible DNA fragments is recorded. […] PcXVIII was also added at 0.5 and 1.0 μM.

[2] = tested on: Chinese hamster V79-379 lung fibroblasts; experiment: Clonogenic cell survival of V79 cells after photodynamic treatment; format: cell-based; details: for LD 90 (light dosage that kills 90% of cells): 0.5 μM, 18 hours, 675 nm red light, VII# preplated data only, XXI* not totally soluble at 0.5 mM
Description: Cells were irradiated at a density of approximately 2×10^6 per 25 cm^2 flask. Immediately after irradiation, the cell monolayer was treated with trypsin, and appropriate aliquots were plated in triplicate to give 100 to 200 colonies in each 10-cm Petri dish. Cell survival was determined by the ability of the cells to form colonies containing at least 50 cells. The response of cells treated with 1 μM AlPcCl and light was compared in each experiment.
Photocytotoxicity of the phthalocyanines compounds I to VI was also assessed by clonogenic assay (Table 1, FIG. 1). In all experiments, 1 μM AlPcCl was included for comparison purposes. From the survival curves (FIG. 1), the fluence reducing the cell survival to 10% (F10) was obtained. The ratio of the F10 for AlPcCl and the F10 for the test compound is recorded in Table 1. Compounds I and II appear to be nearly as efficient photosensitizers as AlPcCl, while compound IV (assayed at half the concentration) was almost twice as efficient as the standard AlPcCl. […] However, in spite of the low efficiency of compound V in inhibiting cell growth, survival measurements were made for this compound, because it was taken up into V79 cells somewhat more efficiently than compounds III and VI.
In order to take differences in cellular uptake into consideration in the assessment of the relative efficiency of these phthalocyanines as photosensitizers of V79 cells, the survival data were replotted against the product of intracellular phthalocyanine concentration and light fluence (FIG. 2). From these curves, the product of intracellular concentration and light fluence reducing survival to 10% (CF10) was obtained, and comparisons of the values for AlPcCl and the test compounds are recorded in Table 1. By this and the other criteria, compound IV appears to be the most efficient photosensitizer. However, when consideration is given to the lesser cell uptake of compound V, it appears to be about as strong a photosensitizer as compound IV.
Using the cell culture methods described above, V79 cells Chinese hamster lung fibroblasts were treated with either 0.5 or 1.0 μM of the phthalocyanines listed in Table 3. About 18 hours thereafter, the cells were irradiated with increasing doses of 675 nm broad band red light from a 500 W tungsten-halogen lamp fitted with a 600 nm high pass filter, to determine the light dosage that would kill 90% of the phthalocyanine treated cells. Where 90% of the cells were not killed, the maximum percent of cells killed were determined, (expressed as % survival) and the related light dosage recorded.

Row | Structure (SMILES) | Uptake Into V79 Cells, 1 μM [1] [n Moles/10^6 cells] | Uptake Into V79 Cells, 4 μM [1] [n Moles/10^6 cells] | n Moles/10^6 Cells/μM (composite uptake value) [1] [n Moles/10^6 Cells/μM] | Fluence, Minimum Demonstrated Condition to Induce Apoptosis (L5178Y cells) [kJ/m^2] | C × F Ld90, Minimum Demonstrated Condition to Induce Apoptosis (L5178Y cells) [kJ/m^2] | LD 90 (light dosage that kills 90% of cells) [2] [kj/m^2] | induction of apoptosis (L5178Y cells) | Maximum Effect (% survival at kj/m^2) ([2]; 1 μM, at 20 kj/m^2) [% at 20] | Maximum Effect (% survival at kj/m^2) ([2]; 1 μM, at 10 kj/m^2) [% at 10] | Maximum Effect (% survival at kj/m^2) ([2]; 4 μM, at 20 kj/m^2) [% at 20]
1 | C[Si](C)(CCCCN)O[Si]1(O[Si](C)(C)CCCCN)n2c3c4ccccc4c2N=C2N=C(N=c4c5ccccc5c(n41)=NC1=NC(=N3)c3ccccc31)c1ccccc12 [Compound VII, SiPc[OSi(CH3)2(CH2)4NH2]2] | 0.2 ± 0.03 | 1.1 ± 0.5 | 0.2 | 3.0 | 1.5 | 4 | – | – | – | –
2 | C[Si](C)(CCCCNC(=S)N[C@@H]1O[C@H](CO)[C@@H](O)[C@H](O)[C@H]1O)O[Si]1(O[Si](C)(C)CCCCNC(=S)N[C@@H]2O[C@H](CO)[C@@H](O)[C@H](O)[C@H]2O)n2c3c4ccccc4c2N=C2N=C(N=c4c5ccccc5c(n41)=NC1=NC(=N3)c3ccccc31)c1ccccc12 [Compound XI, SiPc[OSi(CH3)2(CH2)4NHCSNHC6H111O5]2] | 0.1 | 0.3 ± 0.1 | 0.1 | – | – | – | did not induce apoptosis | 100 | – | –
3 | CCCCCCCCCCCC[N+](C)(C)CCC[Si](C)(C)O[Si]1(O[Si](C)(C)CCC[N+](C)(C)CCCCCCCCCCCC)n2c3c4ccccc4c2N=C2N=C(N=c4c5ccccc5c(n41)=NC1=NC(=N3)c3ccccc31)c1ccccc12 [Compound XIV, SiPc[OSi(CH3)2(CH2)3N^+(CH3)2(CH2)11CH3]22I^−] | 0.03 ± 0.01 | 0.05 ± 0.01 | <0.05 | – | – | – | did not induce apoptosis | – | 93 | –
4 | CCN(CC)c1ccc2c(c1)Oc1cc(N(CC)CC)ccc1C21c2ccccc2C(=O)N1CCCC[Si](C)(C)O[Si]1(O[Si](C)(C)C(C)(C)C)n2c3c4ccccc4c2N=C2N=C(N=c4c5ccccc5c(n41)=NC1=NC(=N3)c3ccccc31)c1ccccc12 (stereo not drawn) [Compound XV, (CH3)3C(CH3)2SiOSiPcOSi(CH3)2(CH2)4NCOC27H30N2O] | 0.01 ± 0.01 | 0.14 ± 0.12 | <0.05 | – | – | – | did not induce apoptosis | – | – | 81
5 | CN(C)CCCCCCCC[Si](C)(C)O[Si]1(O)n2c3c4ccccc4c2N=C2N=C(N=c4c5ccccc5c(n41)=NC1=NC(=N3)c3ccccc31)c1ccccc12 (stereo not drawn) [Compound XXII, HOSiPcOSi(CH3)2(CH2)8N(CH3)2] | – | – | – | 10.0 | 5.0 | 10 | – | – | – | –
